Measurements published in patent publication US7183112B2, “Uses for anti-malarial therapeutic agents” (APT Pharmaceuticals, LLC, priority 1999, dated 2007).

Tested on: Ascaris-sensitized sheep
Assay: Airway hyperresponsiveness to carbachol (post/pre challenge PC400 ratio), Example 3
Type: in vivo
Protocol: Dose Response Curves to Inhaled Carbachol: For the carbachol dose response curves, measurements of SRL were repeated immediately after inhalation of buffer and after each administration of 10 breaths of increasing concentrations of carbachol solution (0.25%, 0.5%, 1.0%, 2.0% and 4.0% w/v). To assess airway responsiveness, the cumulative carbachol dose in breath units (BU) that increased SRL 400% over the post-buffer value (i.e. PC400) was calculated from the dose response curve. One breath unit was defined as one breath of a 1% w/v carbachol solution. The same basic protocol was used for all studies in Example 3. This basic protocol consisted of first obtaining baseline dose response curves to aerosol carbachol 1–3 days prior to antigen challenge. Then, on the day of antigen challenge, values of specific lung resistance (SRL) were measured at baseline and, then, 30 min after drug or vehicle (0.9% saline) treatment. The animals were, then, challenged with Ascaris suum antigen and SRL was remeasured immediately after challenge, hourly from 1–6 h after challenge and on the half-hour from 6 ½–8 h after challenge. Measurements of SRL were obtained 24 h after challenge followed by the 24 h post challenge dose response curve. Studies differed in time of treatment, treatment dose or route of administration. […] A second control challenge was done 2 weeks after the drug trial to insure that the 4 day treatment regimen had no carry-over effect. […] A second control challenge was done 2 weeks after the drug trial to insure that the 4 day treatment regimen had no carry-over effect. […] A second; control challenge was done 2 weeks after the drug trial to insure that the 4 day treatment regimen had no carry-over effect. […] Challenges were separated by 2 weeks. […] On the 15th day, the animals were treated and 30 min later, challenged with antigen. On the following day, after determining the post challenge PC400, the animals resumed treatment for another 14 days, after which, they were challenged with antigen (day 29). The animals were then left untreated for 14 days, after which an antigen challenge was conducted (day 43) and, then, this procedure was repeated after another 2 weeks (day 57). For each series, a repeated measures analysis of variance was performed to see if there were overall differences between the historical control the drug trial and the 2 week follow-up control or, in the case of experiments described in series 4 and 5, amongst the doses and different times, respectively. If a significant overall effect was found, then a two-tailed paired t-test were used to assess pairwise differences. The variables assessed were the peak early airway response (maximum increase in SRL 0–4 h after challenge), peak late airway response (maximum increase in SRL between 5–8 h after antigen challenge, irrespective of when this increase occurred for each sheep in each trial) and on the ratio of post challenge PC400 to pre challenge PC400. (Note: a ratio close to 1 indicates no airway hyperresponsiveness, whereas, a ratio close to 0.5 indicates the development of airway hyperresponsiveness.). Peak responses were used because they are the most conservative estimate of the overall effect. Values in the text and figures are mean±se for 3 sheep.

## CCN(CCO)CCCC(C)Nc1ccnc2cc(Cl)ccc12 (centres unmarked) [HCQ, hydroxychloroquine]
Aerosol 1 mg/kg twice a day for 4 days
  effect on airway hyperresponsiveness (AHR): protection
Aerosol 2 mg/kg once a day for 4 days
  effect on antigen-induced AHR: protection
Chronic treatment, aerosol 2 mg/kg once a day for up to 4 weeks
  effect on antigen-induced AHR: protection
Dose response, aerosol 0.2, 0.6 and 2 mg/kg once a day for 4 days
  effect on antigen-induced AHR: protection
p.o. 1 mg/kg twice a day for 4 days
  effect on antigen-induced AHR: did not protect
